Assay results: patent US8895585B2, “Nicotinamide derivative or salt thereof” (FUJIFILM Corporation, priority 2010, dated 2014)

Columns and labels:
[1] = molecular target: T1, glutathione S-transferase (GST)-fused full-length human Syk protein (Homo sapiens, UniProt P43405); test: Syk enzyme assay; format: biochemical; conditions: Syk enzyme assay, Test Example 1; read-out: IC50 of Syk-inhibitory activity
T1 construct: (GST)-fused full-length human Syk protein; GST (glutathione S-transferase); purchased Carna Biosciences
Procedure, shortened: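 Baculovirus-expressed enzyme (1.2 ng) was preincubated with compound in HEPES pH 7.0/MgCl2/DTT buffer, 2 min shaking then 13 min at room temperature. Biotin-EDPDYEWPSA-NH2 (0.4 μM final) and ATP (27 μM final) were added for 40 min at room temperature. EDTA stop, streptavidin-XL/PT66-K TR-FRET at 615/665 nm gave IC50.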

THP-1 cells = test: TNFα generation assay; format: cell-based, human; conditions: Homo sapiens, THP-1, THP-1 cells; Table 22; read-out: IC50 in TNFα generation assay
Procedure, shortened: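 Secreted TNFα in supernatant quantified by ELISA or AlphaLISA after 7 h culture on human IgG-coated wells (10 μg/ml coating). Cells were IFN-γ-differentiated THP-1 (10 ng/ml, 2 days), exposed to compound for 30 min at room temperature before plating.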

IC50 [1] [nM] | IC50 (THP-1 cells) [nM] | Structure (SMILES)
10 to 50 | 130 to 200 | N#Cc1ccc(-c2cncc(Nc3nc(NC4CCCCC4N)c(F)cc3C(N)=O)c2)cc1 (stereo not shown) [Example 002-173]
< 10 | < 65 | NC(=O)c1cc(F)c(NC2CCCCC2N)nc1Nc1cncc(-c2ccc3c(c2)OCO3)c1 (stereo not shown) [Example 002-175]
< 10 | < 65 | CCn1ncc2ccc(Nc3nc(NC4CCCCC4N)c(F)cc3C(N)=O)cc21 (stereo not shown) [Example 002-185]
< 10 | 65 to 130 | CCn1ncc2c(Nc3nc(NC4CCCCC4N)c(F)cc3C(N)=O)cccc21 (stereo not shown) [Example 002-186]
< 10 | < 65 | NC(=O)c1cc(F)c(NC2CCCCC2N)nc1Nc1ccc2c(cnn2CC(F)F)c1 (stereo not shown) [Example 002-187]
< 10 | 65 to 130 | NC(=O)c1cc(F)c(NC2CCCCC2N)nc1Nc1ccc2cnn(CC(F)F)c2c1 (stereo not shown) [Example 002-188]
< 10 | 65 to 130 | NC(=O)c1cc(F)c(NC2CCCCC2N)nc1Nc1cncc(-c2ccc3cccnc3c2)c1 (stereo not shown) [Example 002-189]
< 10 | 130 to 200 | NC(=O)c1cc(F)c(NC2CCCCC2N)nc1Nc1cncc(-c2ccc3cnccc3c2)c1 (stereo not shown) [Example 002-190]
< 10 | 65 to 130 | NC(=O)c1cc(F)c(NC2CCCCC2N)nc1Nc1cncc(-c2ccc3ccncc3c2)c1 (stereo not shown) [Example 002-191]
< 10 | 130 to 200 | NC(=O)c1cc(F)c(NC2CCCCC2N)nc1Nc1ccnc(-c2ccc3cnccc3c2)c1 (stereo not shown) [Example 002-193]
< 10 | 65 to 130 | Cn1nc(F)c2cc(Nc3nc(NC4CCCCC4N)c(F)cc3C(N)=O)ccc21 (stereo not shown) [Example 002-196]
< 10 | 130 to 200 | CCn1nc(F)c2cc(Nc3nc(NC4CCCCC4N)c(F)cc3C(N)=O)ccc21 (stereo not shown) [Example 002-197]
< 10 | 65 to 130 | Cn1nc(F)c2ccc(Nc3nc(NC4CCCCC4N)c(F)cc3C(N)=O)cc21 (stereo not shown) [Example 002-198]
< 10 | 130 to 200 | CCn1nc(F)c2ccc(Nc3nc(NC4CCCCC4N)c(F)cc3C(N)=O)cc21 (stereo not shown) [Example 002-199]
< 10 | < 65 | NC(=O)c1cc(F)c(NC2CCCCC2N)nc1Nc1ccc2c(cnn2CCF)c1 (stereo not shown) [Example 002-200]
< 10 | 65 to 130 | NC(=O)c1cc(F)c(NC2CCCCC2N)nc1Nc1ccc2cnn(CCF)c2c1 (stereo not shown) [Example 002-201]
< 10 | 65 to 130 | NC(=O)c1cc(F)c(NC2CCCCC2N)nc1Nc1ccc2c(c1)c(F)nn2CCF (stereo not shown) [Example 002-204]
< 10 | 65 to 130 | NC(=O)c1cc(F)c(NC2CCCCC2N)nc1Nc1ccc2c(F)nn(CCF)c2c1 (stereo not shown) [Example 002-205]
< 10 | < 65 | Cc1nn(C)c2ccc(Nc3nc(NC4CCCCC4N)c(F)cc3C(N)=O)cc12 (stereo not shown) [Example 002-206]
< 10 | 65 to 130 | CCn1nc(C)c2cc(Nc3nc(NC4CCCCC4N)c(F)cc3C(N)=O)ccc21 (stereo not shown) [Example 002-207]

IC50 [1] [nM] | IC50 (THP-1 cells) [nM] | Structure (SMILES)
< 10 | 65 to 130 | COCCn1nc(C)c2cc(Nc3nc(NC4CCCCC4N)c(F)cc3C(N)=O)ccc21 (stereo not shown) [Example 002-208]
< 10 | 65 to 130 | Cc1nn(CCF)c2ccc(Nc3nc(NC4CCCCC4N)c(F)cc3C(N)=O)cc12 (stereo not shown) [Example 002-209]
< 10 | 65 to 130 | Cc1nn(CC(F)F)c2ccc(Nc3nc(NC4CCCCC4N)c(F)cc3C(N)=O)cc12 (stereo not shown) [Example 002-210]
10 to 50 | < 65 | NC(=O)c1cc(F)c(N[C@@H]2CCCC[C@@H]2N)nc1Nc1cnc2cccnc2c1 [Example 004-002]
10 to 50 | < 65 | NC(=O)c1cc(F)c(N[C@@H]2CCCC[C@@H]2N)nc1Nc1cnc2ccncc2c1 [Example 004-003]
10 to 50 | 65 to 130 | NC(=O)c1cc(F)c(N[C@@H]2CCCC[C@@H]2N)nc1Nc1cncc2cccnc12 [Example 004-004]
< 10 | 65 to 130 | NC(=O)c1cc(F)c(N[C@@H]2CCCC[C@@H]2N)nc1Nc1cnc2c([N+](=O)[O-])cccc2c1 [Example 004-005]
< 10 | 65 to 130 | Cn1ccc2c(Nc3nc(N[C@@H]4CCCC[C@@H]4N)c(F)cc3C(N)=O)cncc21 [Example 004-006]
< 10 | 65 to 130 | NC(=O)c1cc(F)c(N[C@@H]2CCCC[C@@H]2N)nc1Nc1cncc2c1ccn2CCN1CCCC1 [Example 004-007]
10 to 50 | 130 to 200 | NC(=O)c1cc(F)c(N[C@@H]2CCCC[C@@H]2N)nc1Nc1cncc(C(=O)Nc2ccccc2)c1 [Example 004-011]
< 10 | < 65 | Cn1ccc2cc(Nc3nc(N[C@@H]4CCCC[C@@H]4N)c(F)cc3C(N)=O)cnc21 [Example 004-012]
< 10 | 130 to 200 | NC(=O)c1cc(F)c(N[C@@H]2CCCC[C@@H]2N)nc1Nc1ccc2nc(-c3ccccc3)cn2c1 [Example 004-014]
< 10 | 65 to 130 | COC(=O)c1cncc(Nc2nc(N[C@@H]3CCCC[C@@H]3N)c(F)cc2C(N)=O)c1 [Example 004-016]
10 to 50 | 65 to 130 | Cc1cc(Nc2nc(N[C@@H]3CCCC[C@@H]3N)c(F)cc2C(N)=O)ccn1 [Example 004-018]
10 to 50 | 130 to 200 | Cc1ccncc1Nc1nc(N[C@@H]2CCCC[C@@H]2N)c(F)cc1C(N)=O [Example 004-019]
< 10 | 130 to 200 | NC(=O)c1cc(F)c(N[C@@H]2CCCC[C@@H]2N)nc1Nc1cncc2c1cnn2-c1ccccc1 [Example 004-020]
10 to 50 | 65 to 130 | NC(=O)c1cc(F)c(N[C@@H]2CCCC[C@@H]2N)nc1Nc1cnc2c(ccn2CCN2CCCC2)c1 [Example 004-022]
50 to 100 | 130 to 200 | NC(=O)c1cc(F)c(N[C@@H]2CCCC[C@@H]2N)nc1Nc1cnc2c(ccn2CCN2CCOCC2)c1 [Example 004-024]
< 10 | < 65 | NC(=O)c1cc(F)c(N[C@@H]2CCCC[C@@H]2N)nc1Nc1ccnc2c1ccn2CCN1CCOCC1 [Example 004-025]
< 10 | < 65 | NC(=O)c1cc(F)c(N[C@@H]2CCCC[C@@H]2N)nc1Nc1cnc2ncsc2c1 [Example 004-026]

IC50 [1] [nM] | IC50 (THP-1 cells) [nM] | Structure (SMILES)
10 to 50 | 130 to 200 | Cn1cnc2cc(Nc3nc(N[C@@H]4CCCC[C@@H]4N)c(F)cc3C(N)=O)cnc21 [Example 004-027]
< 10 | 65 to 130 | CCN(CC)CCn1ccc2c(Nc3nc(N[C@@H]4CCCC[C@@H]4N)c(F)cc3C(N)=O)ccnc21 [Example 004-028]
< 10 | 130 to 200 | NC(=O)c1cc(F)c(N[C@@H]2CCCC[C@@H]2N)nc1Nc1ccnc2c1ccn2CCN1CCCCC1 [Example 004-029]
< 10 | 130 to 200 | CN(C)CCCn1ccc2c(Nc3nc(N[C@@H]4CCCC[C@@H]4N)c(F)cc3C(N)=O)ccnc21 [Example 004-030]
< 10 | 130 to 200 | CN(C)c1cccc2cc(Nc3nc(N[C@@H]4CCCC[C@@H]4N)c(F)cc3C(N)=O)cnc12 [Example 004-032]
< 10 | 130 to 200 | NC(=O)c1cc(F)c(N[C@@H]2CCCC[C@@H]2N)nc1Nc1cnc2c(N3CCOCC3)cccc2c1 [Example 004-033]
< 10 | 130 to 200 | COCCn1ccc2c(Nc3nc(N[C@@H]4CCCC[C@@H]4N)c(F)cc3C(N)=O)ccnc21 [Example 004-035]
< 10 | 65 to 130 | CC(C)Cn1ccc2c(Nc3nc(N[C@@H]4CCCC[C@@H]4N)c(F)cc3C(N)=O)ccnc21 [Example 004-036]
< 10 | 65 to 130 | NC(=O)c1cc(F)c(N[C@@H]2CCCC[C@@H]2N)nc1Nc1ccnc2c1ccn2C1CC1 [Example 004-037]
< 10 | 130 to 200 | NC(=O)c1cc(F)c(N[C@@H]2CCCC[C@@H]2N)nc1Nc1ccnc2c1ccn2CC(F)(F)F [Example 004-039]
< 10 | 130 to 200 | NC(=O)c1cc(F)c(N[C@@H]2CCCC[C@@H]2N)nc1Nc1ccnc2c1ccn2CC1CC1 [Example 004-040]
100 to 1000 | 65 to 130 | NC(=O)c1cc(F)c(N[C@@H]2CCCC[C@@H]2N)nc1Nc1cncc(-n2ccnn2)c1 [Example 004-043]
< 10 | 130 to 200 | Cn1ccc2c(Nc3nc(N[C@H](Cc4ccccc4)C(N)=O)c(F)cc3C(N)=O)ccnc21 [Example 004-044]
< 10 | 130 to 200 | NC(=O)c1cc(F)c(N[C@H](Cc2ccccc2)C(N)=O)nc1Nc1ccnc2c1ccn2CC1CC1 [Example 004-046]
10 to 50 | 65 to 130 | NC(=O)c1cc(F)c(N[C@@H]2CCCC[C@@H]2N)nc1Nc1cncc(-c2cccnc2)c1 [Example 004-103]
10 to 50 | 130 to 200 | NC(=O)c1cc(F)c(N[C@@H]2CCCC[C@@H]2N)nc1Nc1cncc(-c2ccncc2)c1 [Example 004-104]
< 10 | 130 to 200 | NC(=O)c1cc(F)c(N[C@@H]2CCCC[C@@H]2N)nc1Nc1cncc(-c2ccccn2)c1 [Example 004-106]
10 to 50 | 130 to 200 | NC(=O)c1cc(F)c(N[C@@H]2CCCC[C@@H]2N)nc1Nc1cnc2c(NCC3CC3)cccc2c1 [Example 004-134]
10 to 50 | 130 to 200 | NC(=O)c1cc(F)c(N[C@@H]2CCCC[C@@H]2N)nc1Nc1cnc2c(c1)OCO2 [Example 004-160]
